Assay results published in patent US9193733B2, “Piperidinylcyclobutyl substituted pyrrolopyridine and pyrrolopyrimidine derivatives as JAK inhibitors” (Incyte Corporation, priority 2012, dated 2015).
Where a name gives a salt, the structure may show the parent alone. Each block holds one compound with its values, some of them ahead of it.

How the values were obtained:
Type in all cases: biochemical
[1] = molecular target: T1, human JAK2 (a.a. 828-1132) catalytic domain (Homo sapiens, UniProt O60674); test: In vitro JAK kinase assay (HTRF, phosphorylation of a biotinylated peptide), JAK2; conditions: 1 mM ATP
T1 construct: human JAK1 (a.a. 837-1142) and JAK2 (a.a. 828-1132); His tag (N); made in house; host or cells: insect cells (baculovirus)
Experimental: (§1) Compounds herein were tested for inhibitory activity of JAK targets according to the following in vitro assay described in Park et al., Analytical Biochemistry 1999, 269, 94-104. The catalytic domains of human JAK1 (a.a. 837-1142) and JAK2 (a.a. 828-1132) with an N-terminal His tag were expressed using baculovirus in insect cells and purified. The catalytic activity of JAK1 and JAK2 was assayed by measuring the phosphorylation of a biotinylated peptide. The phosphorylated peptide was detected by homogenous time resolved fluorescence (HTRF). IC50s of compounds were measured for each kinase in the 40 microL reactions that contain the enzyme, ATP and 500 nM peptide in 50 mM Tris (pH 7.8) buffer with 100 mM NaCl, 5 mM DTT, and 0.1 mg/mL (0.01%) BSA. For the 1 mM IC50 measurements, ATP concentration in the reactions was 1 mM. Reactions were carried out at room temperature for 1 hour and then stopped with 20 μL 45 mM EDTA, 300 nM SA-APC, 6 nM Eu-Py20 in assay buffer (Perkin Elmer, Boston, Mass.). Binding to the Europium labeled antibody took place for 40 minutes and HTRF signal was measured on a Fusion plate reader (Perkin Elmer, Boston, Mass.). See Table A for data related to compounds of the Examples (at 1 mM). Data is indicated as ranges: <20 nM (+), 20 to <150 nM (++), 150 to 500 nM (+++).

[2] = system: human JAK1 (a.a. 837-1142) catalytic domain; test: In vitro JAK kinase assay (HTRF, phosphorylation of a biotinylated peptide), JAK1; conditions: ratio of JAK2 IC50 to JAK1 IC50, 1 mM ATP
Experimental: as §1

[3] = molecular target: T2, human JAK1 (a.a. 837-1142) catalytic domain (Homo sapiens, UniProt P23458); test: as above; conditions: 1 mM ATP
T2 construct: human JAK1 (a.a. 837-1142) and JAK2 (a.a. 828-1132); His tag (N); made in house; host or cells: insect cells (baculovirus)
Experimental: as §1

T1 sequence (O60674 828-1132): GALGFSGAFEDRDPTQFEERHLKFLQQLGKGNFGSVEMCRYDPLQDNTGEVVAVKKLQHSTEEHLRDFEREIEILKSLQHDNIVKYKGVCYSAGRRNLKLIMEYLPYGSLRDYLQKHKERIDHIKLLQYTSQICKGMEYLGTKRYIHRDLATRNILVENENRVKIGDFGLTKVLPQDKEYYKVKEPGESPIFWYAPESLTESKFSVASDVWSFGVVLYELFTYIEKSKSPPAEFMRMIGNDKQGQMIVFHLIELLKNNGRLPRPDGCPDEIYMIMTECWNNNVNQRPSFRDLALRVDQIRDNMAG
T2 sequence (P23458 849-1154): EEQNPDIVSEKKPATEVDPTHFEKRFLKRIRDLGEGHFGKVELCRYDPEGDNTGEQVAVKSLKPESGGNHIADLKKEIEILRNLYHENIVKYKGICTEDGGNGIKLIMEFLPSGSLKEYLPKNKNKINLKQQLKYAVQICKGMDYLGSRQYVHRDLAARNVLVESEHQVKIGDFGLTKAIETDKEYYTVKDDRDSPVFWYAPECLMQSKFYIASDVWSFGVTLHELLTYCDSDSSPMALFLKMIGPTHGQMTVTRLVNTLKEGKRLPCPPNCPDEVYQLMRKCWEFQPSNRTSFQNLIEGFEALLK

Compound: CCNCc1cc(N(C)C2CCN([C@H]3C[C@](CC#N)(n4cc(-c5ncnc6[nH]ccc56)cn4)C3)CC2)nc(C(F)(F)F)c1 [Example 48, {trans-3-{4-[[4-[(ethylamino)methyl]-6-(trifluoromethyl)pyridin-2-yl](methyl)amino]piperidin-1-yl}-1-[4-(7H-pyrrolo[2,3-d]pyrimidin-4-yl)-1H-pyrazol-1-yl]cyclobutyl}acetonitrile]
IC50 [1]: 20 to 150 nM
JAK2/JAK1 [2]: >10
IC50 [3]: < 20 nM

Compound: N#CC[C@]1(n2cc(-c3ncnc4[nH]ccc34)cn2)C[C@H](N2CCC(Oc3cc(CN(CCO)CCO)cc(C(F)(F)F)n3)CC2)C1 [Example 16, {trans-3-(4-{[4-{[bis(2-hydroxyethyl)amino]methyl}-6-(trifluoromethyl)pyridin-2-yl]oxy}piperidin-1-yl)-1-[4-(7H-pyrrolo[2,3-d]pyrimidin-4-yl)-1H-pyrazol-1-yl]cyclobutyl}acetonitrile]
IC50 [1]: 20 to 150 nM
JAK2/JAK1 [2]: >10
IC50 [3]: < 20 nM

Compound: N#CC[C@]1(n2cc(-c3ccnc4[nH]ccc34)cn2)C[C@H](N2CCC(Oc3cc(CNCCO)cc(C(F)(F)F)n3)CC2)C1 [Example 21, {trans-3-(4-{[4-{[(2-hydroxyethyl)amino]methyl}-6-(trifluoromethyl)pyridin-2-yl]oxy}piperidin-1-yl)-1-[4-(1H-pyrrolo[2,3-b]pyridin-4-yl)-1H-pyrazol-1-yl]cyclobutyl}acetonitrile]
IC50 [1]: 150 to 500 nM
JAK2/JAK1 [2]: >10
IC50 [3]: < 20 nM

Compound: {cis-3-(4-{[4-(2-hydroxyethyl)-6-(trifluoromethyl)pyridin-2-yl]amino}piperidin-1-yl)-1-[4-(7H-pyrrolo[2,3-d]pyrimidin-4-yl)-1H-pyrazol-1-yl]cyclobutyl}acetonitrile and {trans-3-(4-{[4-(2-hydroxyethyl)-6-(trifluoromethyl)pyridin-2-yl]amino}piperidin-1-yl)-1-[4-(7H-pyrrolo[2,3-d]pyrimidin-4-yl)-1H-pyrazol-1-yl]cyclobutyl}acetonitrile [Example 38]
IC50 [1]: 20 to 150 nM
JAK2/JAK1 [2]: >10
IC50 [3]: < 20 nM

Compound: N#CC[C@]1(n2cc(-c3ncnc4[nH]ccc34)cn2)C[C@H](N2CCC(Oc3cc(C4(N)COC4)cc(C(F)(F)F)n3)CC2)C1 [Example 50, {trans-3-(4-{[4-(3-aminooxetan-3-yl)-6-(trifluoromethyl)pyridin-2-yl]oxy}piperidin-1-yl)-1-[4-(7H-pyrrolo[2,3-d]pyrimidin-4-yl)-1H-pyrazol-1-yl]cyclobutyl}acetonitrile]
IC50 [1]: 20 to 150 nM
JAK2/JAK1 [2]: >10
IC50 [3]: < 20 nM

Compound: N#CC[C@]1(n2cc(-c3ncnc4[nH]ccc34)cn2)C[C@H](N2CCC(Oc3cc(CN[C@H]4C[C@H](O)C4)cc(C(F)(F)F)n3)CC2)C1 [Example 12, {trans-3-(4-{[4-{[(trans-3-hydroxycyclobutyl)amino]methyl}-6-(trifluoromethyl)pyridin-2-yl]oxy}piperidin-1-yl)-1-[4-(7H-pyrrolo[2,3-d]pyrimidin-4-yl)-1H-pyrazol-1-yl]cyclobutyl}acetonitrile]
IC50 [1]: 20 to 150 nM
JAK2/JAK1 [2]: >10
IC50 [3]: < 20 nM

Compound: N#CC[C@]1(n2cc(-c3ncnc4[nH]ccc34)cn2)C[C@H](N2CCC(Oc3cc(CNC4CCOCC4)cc(C(F)(F)F)n3)CC2)C1 [Example 5, [trans-1-[4-(7H-pyrrolo[2,3-d]pyrimidin-4-yl)-1H-pyrazol-1-yl]-3-(4-{[4-[(tetrahydro-2H-pyran-4-ylamino)methyl]-6-(trifluoromethyl)pyridin-2-yl]oxy}piperidin-1-yl)cyclobutyl]acetonitrile]
IC50 [1]: 20 to 150 nM
JAK2/JAK1 [2]: >10
IC50 [3]: < 20 nM

Now from value to compound:

IC50 [1]: 20 to 150 nM
JAK2/JAK1 [2]: >10
IC50 [3]: < 20 nM
Compound: N#CC[C@]1(n2cc(-c3ncnc4[nH]ccc34)cn2)C[C@H](N2CCC(Nc3cc(CN4CCC4)cc(C(F)(F)F)n3)CC2)C1 [Example 39, {trans-3-(4-{[4-(azetidin-1-ylmethyl)-6-(trifluoromethyl)pyridin-2-yl]amino}piperidin-1-yl)-1-[4-(7H-pyrrolo[2,3-d]pyrimidin-4-yl)-1H-pyrazol-1-yl]cyclobutyl}acetonitrile]

IC50 [1]: 20 to 150 nM
JAK2/JAK1 [2]: >10
IC50 [3]: < 20 nM
Compound: N#CC[C@]1(n2cc(-c3ncnc4[nH]ccc34)cn2)C[C@H](N2CCC(Nc3cc(CN[C@H]4C[C@H](O)C4)cc(C(F)(F)F)n3)CC2)C1 [Example 34, {trans-3-(4-{[4-{[(trans-3-hydroxycyclobutyl)amino]methyl}-6-(trifluoromethyl)pyridin-2-yl]amino}piperidin-1-yl)-1-[4-(7H-pyrrolo[2,3-d]pyrimidin-4-yl)-1H-pyrazol-1-yl]cyclobutyl}acetonitrile]

IC50 [1]: 20 to 150 nM
JAK2/JAK1 [2]: >10
IC50 [3]: < 20 nM
Compound: N#CC[C@]1(n2cc(-c3ncnc4[nH]ccc34)cn2)C[C@H](N2CCC(Nc3cc(CO)cc(C(F)(F)F)n3)CC2)C1 [Example 31, {trans-3-(4-{[4-(hydroxymethyl)-6-(trifluoromethyl)pyridin-2-yl]amino}piperidin-1-yl)-1-[4-(7H-pyrrolo[2,3-d]pyrimidin-4-yl)-1H-pyrazol-1-yl]cyclobutyl}acetonitrile]

IC50 [1]: 20 to 150 nM
JAK2/JAK1 [2]: >10
IC50 [3]: < 20 nM
Compound: N#CC[C@]1(n2cc(-c3ncnc4[nH]ccc34)cn2)C[C@H](N2CCC(Nc3cc(CN4CC[C@H](O)C4)cc(C(F)(F)F)n3)CC2)C1 [Example 43, {trans-3-(4-{[4-{[(3S)-3-hydroxypyrrolidin-1-yl]methyl}-6-(trifluoromethyl)pyridin-2-yl]amino}piperidin-1-yl)-1-[4-(7H-pyrrolo[2,3-d]pyrimidin-4-yl)-1H-pyrazol-1-yl]cyclobutyl}acetonitrile]

IC50 [1]: 150 to 500 nM
JAK2/JAK1 [2]: >10
IC50 [3]: < 20 nM
Compound: CN(c1cc(CO)cc(C(F)(F)F)n1)C1CCN([C@H]2C[C@](CC#N)(n3cc(-c4ncnc5[nH]ccc45)cn3)C2)CC1 [Example 47, {trans-3-{4-[[4-(hydroxymethyl)-6-(trifluoromethyl)pyridin-2-yl](methyl)amino]piperidin-1-yl}-1-[4-(7H-pyrrolo[2,3-d]pyrimidin-4-yl)-1H-pyrazol-1-yl]cyclobutyl}acetonitrile]

IC50 [1]: 20 to 150 nM
JAK2/JAK1 [2]: >10
IC50 [3]: < 20 nM
Compound: N#CC[C@]1(n2cc(-c3ncnc4[nH]ccc34)cn2)C[C@H](N2CCC(Nc3cc(CO)nc(C(F)(F)F)n3)CC2)C1 [Example 27, {trans-3-(4-{[6-(hydroxymethyl)-2-(trifluoromethyl)pyrimidin-4-yl]amino}piperidin-1-yl)-1-[4-(7H-pyrrolo[2,3-d]pyrimidin-4-yl)-1H-pyrazol-1-yl]cyclobutyl}acetonitrile]

IC50 [1]: 20 to 150 nM
JAK2/JAK1 [2]: >10
IC50 [3]: < 20 nM
Compound: COCc1cc(NC2CCN([C@H]3C[C@](CC#N)(n4cc(-c5ncnc6[nH]ccc56)cn4)C3)CC2)nc(C(F)(F)F)c1 [Example 45, {trans-3-(4-{[4-(methoxymethyl)-6-(trifluoromethyl)pyridin-2-yl]amino}piperidin-1-yl)-1-[4-(7H-pyrrolo[2,3-d]pyrimidin-4-yl)-1H-pyrazol-1-yl]cyclobutyl}acetonitrile]

IC50 [1]: 20 to 150 nM
JAK2/JAK1 [2]: >10
IC50 [3]: < 20 nM
Compound: N#CC[C@]1(n2cc(-c3ncnc4[nH]ccc34)cn2)C[C@H](N2CCC(Nc3cc(CNCCO)nc(C(F)(F)F)n3)CC2)C1 [Example 29, {trans-3-(4-{[6-{[(2-hydroxyethyl)amino]methyl}-2-(trifluoromethyl)pyrimidin-4-yl]amino}piperidin-1-yl)-1-[4-(7H-pyrrolo[2,3-d]pyrimidin-4-yl)-1H-pyrazol-1-yl]cyclobutyl}acetonitrile]

IC50 [1]: 20 to 150 nM
JAK2/JAK1 [2]: >10
IC50 [3]: < 20 nM
Compound: N#CC[C@]1(n2cc(-c3ncnc4[nH]ccc34)cn2)C[C@H](N2CCC(Oc3cc(CN[C@H]4C[C@@H](O)C4)cc(C(F)(F)F)n3)CC2)C1 [Example 18, {trans-3-(4-{[4-{[(cis-3-hydroxycyclobutyl)amino]methyl}-6-(trifluoromethyl)pyridin-2-yl]oxy}piperidin-1-yl)-1-[4-(7H-pyrrolo[2,3-d]pyrimidin-4-yl)-1H-pyrazol-1-yl]cyclobutyl}acetonitrile 3.6 x trifluoroacetate salt]

IC50 [1]: 20 to 150 nM
JAK2/JAK1 [2]: >10
IC50 [3]: < 20 nM
Compound: CN(CCO)Cc1cc(OC2CCN([C@H]3C[C@](CC#N)(n4cc(-c5ncnc6[nH]ccc56)cn4)C3)CC2)nc(C(F)(F)F)c1 [Example 17, {trans-3-(4-{[4-{[(2-hydroxyethyl)(methyl)amino]methyl}-6-(trifluoromethyl)pyridin-2-yl]oxy}piperidin-1-yl)-1-[4-(7H-pyrrolo[2,3-d]pyrimidin-4-yl)-1H-pyrazol-1-yl]cyclobutyl}acetonitrile]
